Results taken from patent US6037332A, “Method of urinary bladder instillation” (Emory University, priority 1997, dated 2000).

Tests used:
[1] = system: MNU induced bladder tumors; settings: intravesical, Fisher 344 rats; Graham et al. 1995; cited from earlier work
[2] = system: epidermal growth factor (EGF) binding to T24 cells; assay: 125I-EGF growth factor receptor binding to T24 cells; set-up: species or system human
Method: Method: Growth factor receptor binding studies were performed using T24 high grade human bladder tumor cell line. Cells were incubated with […] ^125 I-Insulin like growth factor-1 (^125 I-IGF-1) or ^125 I-epidermal growth factor (^125 I-EGF) and varying concentration of unlabeled growth factor or dextran sulfate in 1 ml of binding assay buffer. After incubation at 4° C. for 10 to 12 hours, the assay buffer was removed and the cultures washed three times. The cells and receptor-bound growth factors were then solubilized in 1 ml of […] before being quantitated in a gamma radiation counter.

[3] = system: human urinary bladder carcinoma cells; settings: Sorimachi et al. 1992; cited from earlier work
[4] = system: T24 cells; assay: Proliferation of human transitional cell carcinoma cultures (crystal violet, A540 ratio day one/day eight); type: cell-based; settings: 10 mM dextran sulfate; day eight; p<0.0001
Method: Method: Cultures of two urothelial carcinoma cell lines, HT 1376 and T24 were obtained from the American Type Culture Collection and propagated in Dulbecco's Modified Eagles Medium (DMEM) supplemented with 10% fetal bovine serum (FBS). The HT1376 and T24 cells were plated into 96 well polystyrene trays in 0.1 ml of medium at densities of 5000 and 2500 cells/wells respectively. After overnight incubation, medium was replaced with DMEM containing various FBS and dextran sulfate concentrations. Each FBS and dextran sulfate concentration was tested in quadruplicated wells. On day eight the cells were fixed with glutaraldehyde, stained with 0.1% crystal violet and absorbance at 540 nm was quantitated in a (Bio-Rad) microplate spectrophotometer.
Results: The ratio of A540 values in day one and day eight was used to indicate cell proliferation.

[5] = system: MNU-induced rat bladder transitional cell carcinoma
Method: (1972) and modified by Steinberg, et al. (1990). Animals: Four to five week old female Fisher 344 rats (avg. Wt. 200 g) were used in all cohorts on this trial. All animals received 5 mg/200 g body weight intraperitoneal gentamicin (50 mg/ml) as antibacterial prophylaxis one hour prior to each bladder catheterization. MNU dose and schedule: 100 mg of MNU (Sigma, St. Louis, Mo.) were dissolved in 10 ml of sodium acetate (CH3 COONa), pH of a solution=6.5. Five mg/200 g body weight of this solution (0.5 ml) was instilled intravesically via a 22-gauge teflon angiocatheter under a continuous flow hood within 45 minutes of preparing the MNU solution every other week for a total of 4 doses (8 weeks). […] (Mol. Wt. 8000 Da.-Sigma, St. Louis, Mo.) Beginning at week four, 20 of the animals received intravesical dextran sulfate, 10 mg/200 g body weight twice a week for four weeks. The remaining 20 animals received saline on the same schedule. Tissue Preparations: The urinary bladder were excised, filled and fixed with 10% neutral buffered formalin, and then embedded in paraffin. The bladders were sectioned every 2 mm and 5-micron sections were stained with hematoxylin and eosin.

Molecule	in-vivo action on MNU induced bladder tumors [1]	EGF binding ([2]; dextran sulfate 10 mM)	EGF binding ([2]; dextran sulfate 1-2 mM)	inhibitory effect on growth of human urinary bladder carcinoma cells in culture [3]	T24 cell proliferation inhibition [4]	prevention of development of transitional cell carcinoma of the bladder ([5]; intravesical, 10 mg/200 g body weight twice a week for four weeks, from week four)	side effects or histopathologic changes in urinary bladders ([5]; rat, in vivo)
Cc1ccc(C(=O)Nc2ccc(S(=O)(=O)O)c3cc(S(=O)(=O)O)cc(S(=O)(=O)O)c23)cc1NC(=O)c1cccc(NC(=O)Nc2cccc(C(=O)Nc3cc(C(=O)Nc4ccc(S(=O)(=O)O)c5cc(S(=O)(=O)O)cc(S(=O)(=O)O)c45)ccc3C)c2)c1 [Suramin]	intravesical inhibition of MNU induced bladder tumors	–	–	–	–	–	–
dextran sulfate	–	115 % of control	80 % of control binding	failed to observe an inhibitory effect	completely inhibited	effectively prevents the development of transitional cell carcinoma of the bladder	did not cause any significant side effects or histopathologic changes
